Columns and labels:
[1] = molecular target: T1, human serum albumin (HSA) (Homo sapiens, UniProt P02768); test: intrinsic fluorescence quenching titration; assay type: binding; conditions: 298 K; 0.1 M Tris-HCl pH 7.3, 0.1 M NaCl; 10 μM protein; excitation 282 nm; n = 1.15; double-log
T1 construct: gene ALB; mature protein, 585 residues, 17 disulfide bonds, about 67 kD
Description: intrinsic fluorescence quenching titration on human serum albumin (HSA)

[2] = molecular target: T2, human transferrin (TRF) (Homo sapiens, UniProt P02787); test: intrinsic fluorescence quenching titration; assay type: binding; conditions: 298 K; 0.1 M Tris-HCl pH 7.3, 0.1 M NaCl; 10 μM protein; excitation 282 nm; n = 1.09; double-log
T2 construct: gene TF; mature glycoprotein, 679 residues, 19 disulfide bonds, about 77 kD
Description: intrinsic fluorescence quenching titration on human transferrin (TRF)

T1 sequence (P02768 25-609): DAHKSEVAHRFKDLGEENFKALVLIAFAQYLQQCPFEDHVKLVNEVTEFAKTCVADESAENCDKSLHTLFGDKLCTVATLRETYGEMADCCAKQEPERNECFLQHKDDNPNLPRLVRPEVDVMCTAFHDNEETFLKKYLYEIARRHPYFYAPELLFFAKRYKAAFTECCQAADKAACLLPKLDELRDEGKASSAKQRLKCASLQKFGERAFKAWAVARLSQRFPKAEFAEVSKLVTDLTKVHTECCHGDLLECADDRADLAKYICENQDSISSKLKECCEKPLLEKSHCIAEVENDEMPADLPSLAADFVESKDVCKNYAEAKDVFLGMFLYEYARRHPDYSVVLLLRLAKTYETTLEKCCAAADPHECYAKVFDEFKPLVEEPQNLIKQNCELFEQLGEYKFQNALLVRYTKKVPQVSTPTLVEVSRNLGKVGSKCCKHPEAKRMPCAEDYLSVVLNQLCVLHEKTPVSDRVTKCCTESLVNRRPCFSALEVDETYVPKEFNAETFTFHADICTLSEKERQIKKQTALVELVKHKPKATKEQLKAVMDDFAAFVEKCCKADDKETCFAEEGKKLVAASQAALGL
T2 sequence (P02787 20-698): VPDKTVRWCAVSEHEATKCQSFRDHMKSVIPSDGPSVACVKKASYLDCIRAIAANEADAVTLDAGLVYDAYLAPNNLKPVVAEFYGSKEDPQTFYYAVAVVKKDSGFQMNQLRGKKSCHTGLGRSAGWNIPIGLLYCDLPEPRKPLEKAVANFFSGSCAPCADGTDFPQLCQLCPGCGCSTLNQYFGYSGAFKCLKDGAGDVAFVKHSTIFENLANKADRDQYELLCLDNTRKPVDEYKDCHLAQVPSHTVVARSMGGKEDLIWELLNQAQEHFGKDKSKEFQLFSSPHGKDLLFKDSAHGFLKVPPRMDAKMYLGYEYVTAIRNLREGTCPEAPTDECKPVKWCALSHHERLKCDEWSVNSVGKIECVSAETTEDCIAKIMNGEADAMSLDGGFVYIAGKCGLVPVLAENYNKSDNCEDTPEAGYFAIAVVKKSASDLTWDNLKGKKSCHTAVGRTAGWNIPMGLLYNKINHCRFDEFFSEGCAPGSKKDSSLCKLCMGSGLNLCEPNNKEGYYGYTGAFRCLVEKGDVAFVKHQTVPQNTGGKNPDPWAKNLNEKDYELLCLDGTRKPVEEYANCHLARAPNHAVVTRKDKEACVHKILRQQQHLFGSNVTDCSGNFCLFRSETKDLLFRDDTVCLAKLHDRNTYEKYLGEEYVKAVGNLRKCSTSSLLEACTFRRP

K [1]: 648320 L/mol | K [2]: 146520 L/mol
Compound: COc1c(O)cc2oc3cc(O)c(CC=C(C)C)c(O)c3c(=O)c2c1CC=C(C)C [α-mangostin, 1,3,6-trihydroxy-7-methoxy-2,8-bis(3-methyl-2-butenyl)-9H-xanthen-9-one]

Source: article PMC5008840, “α-Mangostin Extraction from the Native Mangosteen (Garcinia mangostana L.) and the Binding Mechanisms of α-Mangostin to HSA or TRF” (PLoS ONE, 2016)
